Experimental data from EP0269841A1, “1-Hydroxyalkyl xanthines, processes for their preparation and medicaments containing them” (SOCIETE DES PRODUITS NESTLE S.A., priority 1986, dated 1988).
Where two headings read alike, the source gives them in different places.

System: oreillette gauche du cobaye isolée et stimulée électriquement
Test: In vitro inotropic (cardiotonic) activity: contraction force of isolated, electrically stimulated guinea pig left atrium
Assay type: cell-based
Conditions: for minimal effective concentration: read-out: Cardiotonique (concentration minimale efficace en ug/ml produisant une réponse significative)
Source text: Les composés (I) selon l'invention ont été trouvés peu toxiques et n'ont pas ou peu d'effet sur le système nerveux central. Par contre, ils se sont montrés actifs dans les test in vitro d'activité inotropique (cardiotonique). Le Tableau (IV) ci-dessous donne les résultats de ces essais.
Theophylline 15 Amrinone ^2) 100 Milrinone ^2) 0,5 IBMX^3) 0,5 • 1) Mesure de la force de contraction de l'oreillette gauche du cobaye isolée et stimulée électriquement, selon Erjavek, F. and Adamic, S., Arch. Int. Pharmacodyn. 155: 251, 1965. Une réponse est considérée comme significative lorsque la force de contraction de base est augmentée de plus de 40 %. • 2) Médicament cardiotonique selon l'état de la technique • 3) 1-méthyl-3-isobutylxanthine

[1] = significant response = basal contraction force increased by more than 40 %, isolated left atrium of guinea pig, electrically stimulated

Row | SMILES | minimal effective concentration [1] | other results
1 | CCCn1c(=O)n(CCCO)c(=O)c2[nH]c(CC)nc21 [compound 9] | 2 µg/mL | –
2 | CCCCn1c(=O)n(CC(C)O)c(=O)c2[nH]cnc21 (stereo not shown) [compound 6] | – | Cardiotonique (concentration minimale efficace en ug/ml produisant une réponse significative) [1]: 4,2 ug/ml
3 | CC(O)CCn1c(=O)c2[nH]cnc2n(C)c1=O (stereo not shown) [compound 13] | 50 µg/mL | –
4 | CCCn1c(=O)n(CC(C)O)c(=O)c2[nH]c(C)nc21 (stereo not shown) [compound 5] | 0.6 µg/mL | –
5 | CCCn1c(=O)n(CCCCCO)c(=O)c2[nH]c(C)nc21 [Xanthine No. 27, 1-(5-Hydroxypentyl)-3-propyl-8-methylxanthine] | – | Cardiotonique (concentration minimale efficace en ug/ml produisant une réponse significative) (significant response = basal contraction force increased by more than 40 %, isolated left atrium of guinea pig, electrically stimulated, listed as 1): 1 µg/mL
6 | CC(C)Cn1c(=O)n(CCCO)c(=O)c2[nH]cnc21 [compound 11] | 0.7 µg/mL | –
7 | CCCn1c(=O)n(CCC(C)O)c(=O)c2[nH]cnc21 (stereo not shown) [compound 16] | 0.1 µg/mL | –
8 | CCCn1c(=O)n(CCCCO)c(=O)c2[nH]c(C)nc21 [compound 20] | 0.7 µg/mL | –
9 | Cn1c(=O)n(CCCCCO)c(=O)c2[nH]cnc21 [compound 25] | 6.7 µg/mL | –
10 | Cc1nc2c([nH]1)c(=O)n(CCCCO)c(=O)n2CC(C)C [compound 22] | 25 µg/mL | –
11 | CCn1c(=O)n(CCCCO)c(=O)c2[nH]cnc21 [compound 18] | 3.3 µg/mL | –
12 | CC(C)Cn1c(=O)n(CCC(C)O)c(=O)c2[nH]cnc21 (stereo not shown) [compound 17] | 1.3 µg/mL | –
13 | CCCCn1c(=O)n(CCCCO)c(=O)c2[nH]cnc21 [compound 21] | 2 µg/mL | –
14 | Nc1cc(-c2ccncc2)c[nH]c1=O [Amrinone, reference compound] | 100 µg/mL | –
15 | CC(O)CCCn1c(=O)c2[nH]cnc2n(C)c1=O (stereo not shown) [compound 23] | 33.3 µg/mL | –
16 | CCn1c(=O)n(CCC(C)O)c(=O)c2[nH]cnc21 (stereo not shown) [compound 14] | 0.8 µg/mL | –

Row | SMILES | minimal effective concentration [1] | other results
17 | CCCn1c(=O)n(CCCC(C)O)c(=O)c2[nH]cnc21 (stereo not shown) [compound 24] | 0.7 µg/mL | –
18 | CCn1c(=O)n(CCC(C)O)c(=O)c2[nH]c(C)nc21 (stereo not shown) [compound 15] | 0.6 µg/mL | –
19 | CCCn1c(=O)n(CCCO)c(=O)c2[nH]c(C)nc21 [compound 8] | 4.2 µg/mL | –
20 | Cc1nc2c([nH]1)c(=O)n(CCCO)c(=O)n2CC(C)C [compound 12] | 0.5 µg/mL | –
21 | CCCn1c(=O)n(CCCO)c(=O)c2[nH]cnc21 [compound 7] | 1.3 µg/mL | –
22 | CC(C)Cn1c(=O)n(CCC(C)O)c(=O)c2[nH]cnc21 (stereo not shown) [Xanthine No. 17, 1-(3-Hydroxybutyl)-3-isobutylxanthine] | – | Cardiotonique (concentration minimale efficace en ug/ml produisant une réponse significative) (significant response = basal contraction force increased by more than 40 %, isolated left atrium of guinea pig, electrically stimulated, listed as 3): 2 µg/mL
23 | Cn1c(=O)c2[nH]cnc2n(C)c1=O [Theophylline, reference compound] | 15 µg/mL | –
24 | CCCn1c(=O)n(CCCCCO)c(=O)c2[nH]cnc21 [compound 26] | 0.2 µg/mL | –
25 | CCCn1c(=O)n(CCCCO)c(=O)c2[nH]cnc21 [compound 19] | 0.4 µg/mL | –
26 | CC(C)Cn1c(=O)n(C)c(=O)c2[nH]cnc21 [IBMX, 1-méthyl-3-isobutylxanthine, reference compound] | 0.5 µg/mL | –
27 | CCCCn1c(=O)n(CCCO)c(=O)c2[nH]cnc21 [compound 10] | 0.4 µg/mL | –
28 | CCCCn1c(=O)n(CC(C)O)c(=O)c2[nH]cnc21 (stereo not shown) [Xanthine No. 6, 1-(2-Hydroxypropyl)-3-butylxanthine] | 3.3 µg/mL | –
29 | Cc1[nH]c(=O)c(C#N)cc1-c1ccncc1 [Milrinone, reference compound] | – | minimal effective concentration: 0.5 µg/mL
30 | CCCn1c(=O)n(CCCCCO)c(=O)c2[nH]c(C)nc21 [compound 27] | – | Cardiotonique (concentration minimale efficace en ug/ml produisant une réponse significative) [1]: 0,3 ug/ml
31 | CCCCn1c(=O)n(CCCCO)c(=O)c2[nH]cnc21 [Xanthine No. 21, 1-(4-Hydroxybutyl)-3-butylxanthine] | – | Cardiotonique (concentration minimale efficace en ug/ml produisant une réponse significative) (significant response = basal contraction force increased by more than 40 %, isolated left atrium of guinea pig, electrically stimulated, listed as 2): 2,5 ug/ml
